Publication PMC10799935, “Discovery of a peripheral 5HT2A antagonist as a clinical candidate for metabolic dysfunction-associated steatohepatitis” (Nature Communications, 2024)
“Also recorded” adds a separate entry of the source.

Columns and labels:
[1] = system: STZ+HFD mice; experiment: STZ+HFD mice (modified STAM) NASH and liver fibrosis model; type: in vivo, mouse; settings: 11c 5 or 10 mg/kg, OCA 10 mg/kg
Procedure: Mice were intraperitoneally injected with low-dose streptozotocin (40 mg/kg; 5 times) in 7-week-old mice. After injection with STZ, mice were fed an HFD for 16 weeks to induce NASH and liver fibrosis. After 16 weeks of an HFD, mice were fed a standard chow diet to mimic the NASH patient under […]
nine weeks by oral gavage (Reviewer-only data 4). […]
inflammation, hepatocyte ballooning, and total NAFLD activity score by the NASH CRN histological scoring system (Reviewer-only data 4B, C). […]
hepatic fibrosis stage similar to STZ+HFD mice treated with OCA (Reveiwer-only data 4D, E). STZ+HFD mice […]
function (Reviwer-only data 4F). […]
group (Reviewer-only data 4G). Furthermore, the expression of genes related to lipogenesis and fibrosis was reduced in the compound 11c-treated group in a dose-dependent manner (Reviewer-only data 4H, I). These […]
Reviewer-only Data 4. Compound 11c treatment with dietary modification ameliorates NASH and liver fibrosis in a dose-dependent manner. (A) Experimental scheme for in vivo efficacy of compound 11c in […]
(STZ+HFD mice. (B-I) STZ+HFD mice fed HFD for 16 weeks were switched to SCD for 9 weeks and were treated with vehicle, compound 11c, or OCA by daily oral gavage. (B) Representative liver histology by H&E staining […]
mg/kg. Scale bars, 100µm. […]
mice; n = 9 per group. (D) Representative liver histology by Masson’s trichrome staining from vehicle, […]
Scale bars, 100µm. (E) Fibrosis stage
(F) Serum AST and ALT levels; n = 9 per […]
group. (G) Serum TG levels and hepatic TG levels; n = 9 per group. (H) Relative mRNA expression of lipogenesis-related genes as assessed by qRT-PCR in the liver; n = 9 per group. (I) Relative mRNA expression of fibrosis-related genes as assessed by qRT-PCR in the liver; n = 9 per group. Data are expressed as the means ±SEM.
[…], **P<0.01, one-way ANOVA with post hoc Tukey’s test (C, E, F, G, H, I). […]
Representative liver histology by Masson’s trichrome staining and Sirius Red staining. Scale bars, 100µm. (E) […]
one-way ANOVA with post hoc Tukey’s test (C, E).
Comment 2: In "Methods", the author claims to use HEK293 cells (a type of cell derived from kidney embryos) for cell research, however, the data in Table 5 are the results of hepatocyte experiments. What happened? Response: We appreciate the Reviewer’s comment. HEK293 cells were used for inhibition assay (cell research), shown in Table 1-3 of the main manuscript, while, hepatic cell lines were used for chemical profiling and for “Hepatocyte stability” test, shown in Table 5 of the main manuscript. The “Selectivity” of Compound 11c for different 5HT subtypes is elucidated in response to Comment 6.
We have modified the Methods section to provide clarity.

[2] = molecular target: T1, 5HT2A (Homo sapiens, UniProt P28223); experiment: Human 5HT2A inhibition assay (FLIPR calcium 6, 5HT stimulus, stably transfected HEK293 cells); type: cell-based; design: expressed in transfected cells; host or cells: HEK293; settings: HEK293, 10 μM; read-out: % Inhibition at 10 μM (SD)
T1 sequence (P28223 whole entry): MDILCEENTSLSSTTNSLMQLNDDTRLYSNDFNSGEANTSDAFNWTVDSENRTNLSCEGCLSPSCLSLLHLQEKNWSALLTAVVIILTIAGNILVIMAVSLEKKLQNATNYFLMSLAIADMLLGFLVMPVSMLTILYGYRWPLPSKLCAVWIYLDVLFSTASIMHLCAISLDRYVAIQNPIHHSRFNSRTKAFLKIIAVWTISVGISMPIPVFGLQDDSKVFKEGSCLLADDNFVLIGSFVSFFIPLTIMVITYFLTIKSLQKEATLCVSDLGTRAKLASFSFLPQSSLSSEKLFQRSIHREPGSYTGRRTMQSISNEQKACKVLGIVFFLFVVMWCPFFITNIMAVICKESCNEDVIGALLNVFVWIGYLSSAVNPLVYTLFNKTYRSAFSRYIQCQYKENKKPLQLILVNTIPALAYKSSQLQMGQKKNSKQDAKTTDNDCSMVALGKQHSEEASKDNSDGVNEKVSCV

[3] = molecular target: T1, 5HT2A; experiment: as above; type: cell-based; design: expressed in transfected cells; host or cells: HEK293; settings: for inhibition at 1 µM: HEK293, 1 μM, read-out: % Inhibition at 1 μM (SD)
Procedure: The derivatives were evaluated at a concentration of 1 μM for their antagonist activity on the 5HT2A receptor (Tables 1–3)[33],[34]. […] The cells were stained with 100 μL of cytosolic calcium dye using the FLIPR calcium 6 assay solution (Molecular devices, #R8190) supplemented with 2.5 mM probenecid (Sigma; P8761) and incubated for 1 h at 37 °C. After 1 h, the designated amount of the compound was treated in each well and incubated for another 1 h at 37 °C. […] Experimental conditions for the 5HT subtypes can be found in the Supporting Information (Supplementary Table 1).

[4] = Liver microsomal stability, human; type: in vitro ADME
Excerpt: (§1) Based on the structure and activity of the two series above, we replaced the alcohol with –CH2.

[5] = Liver microsomal stability (species not stated); type: in vitro ADME
[6] = Liver microsomal stability, rat; type: in vitro ADME
Excerpt: as §1

| SMILES | inhibition at 10 µM [2] | IC50 [3] | inhibition at 1 µM [3] | metabolic stability in the liver microsome (% after 30 min incubation) [4] | liver microsomal stability (in words) [5] | metabolic stability in the liver microsome (% after 30 min incubation) [6] | further results |
| --- | --- | --- | --- | --- | --- | --- | --- |
| CC[C@H]1[C@@H](O)[C@@H]2[C@H](CC[C@]3(C)[C@@H]([C@H](C)CCC(=O)O)CC[C@@H]23)[C@@]2(C)CC[C@@H](O)C[C@@H]12 [OCA, Obeticholic acid, reference compound] | – | – | – | – | – | – | hepatic fibrosis stage [1]: improvement |
| CC(C)NC(=S)N1CCC(=C2c3ccc(Cl)cc3CCc3cccnc32)CC1 [Compound 5] | 8% | – | – | – | – | – | – |
| CC(=O)N1CCC(=C2c3ccc(Cl)cc3CCc3cccnc32)CC1 [Compound 3] | -1% | – | – | – | – | – | – |
| CN1CCC(=C2c3ccc(Cl)cc3CCc3cccnc32)CC1 [Compound 6] | 95 ± 0.31% | 119 nM | 90 ± 0.62% | – | – | – | – |
| Cc1nc2n(c(=O)c1CCN1CCC(=C3c4ccc(Cl)cc4CCc4cccnc43)CC1)CCCC2 [Compound 11b] | – | 14 nM | 92.63 ± 0.6% | 17.3% | metabolically unstable; also recorded: rapidly metabolized in the liver microsome | 11.7% | – |
| O=c1[nH]c2ccccc2c(=O)n1CCN1CCC(=C2c3ccc(Cl)cc3CCc3cccnc32)CC1 [Compound 11d] | – | 47 nM | – | 5.33% | metabolically unstable; also recorded: low liver microsomal stability | 0.50% | IC50 (nM) [3]: lower in vitro activity than 11c; % Inhibition at 1 μM (SD) ([3]; 1 μM): 102 ± 0.03% |
